From patent US3992379A, “4-Alkyldioxyalkylene-5-benzylpyrimidines” (Ludwig Heumann & Co. GmbH, priority 1973, dated 1976)
Converted amounts (≈) assume the structure as drawn.

Columns and labels:
physchem = conditions: water
[1] = J. Med. Pharm. Chem. 5, p. 1118, Tab. 9; cited from earlier work
[2] = Anti-bacterial action, general statement; conditions: in words; compared with conventional bactericide 5-nitro-8-hydroxycholine
Source text: These physical properties are required in order to meet the fundamental needs for resorption required in oral adminstration.

25 coli strains = test: Anti-bacterial action test with discs impregnated with 25 μg of substance (arresting circle diameter); type: cell-based; conditions: mean (x) over 25 coli strains
Description: The test for anti-bacterial action […] was performed with discs which were each impregnated with 25 μg of the two substances A and B: […]

[3] = Toxicity, general statement; conditions: in words; compared with conventional bactericide 5-nitro-8-hydroxycholine
in vivo = conditions: rat, rats

| Compound | solubility (physchem) | bactericidal activity [1] | anti-bacterial action [2] | zone of inhibition at 25 µg/disc (25 coli strains) | degree of toxicity [3] | LD50 (in vivo) |
| --- | --- | --- | --- | --- | --- | --- |
| COc1cc(Cc2cnc(N)nc2N)cc(OC)c1OC [2,4-diamino-5-(3',4',5'-trimethoxy-benzyl)-pyrimidine] | 670 µg/mL (≈ 2.31 mM) | such activity is present in the maximum degree |  |  |  |  |
| COc1ccc(Cc2cnc(N)nc2N)cc1OC [2,4-diamino-5-(3'-4'-dimethoxybenzyl)-pyrimidine] |  | has bactericidal activity |  |  |  |  |
| COCCOc1c(OC)cc(Cc2cnc(N)nc2N)cc1OC [substance B, 2,4-diamino-5-(3',5'-dimethoxy-4'-methyldioxyethylene-benzyl)-pyrimidine] | 8000 µg/mL (≈ 23.9 mM) |  | improved anti-bacterial action | 28.5 mm | substantially lower degree of toxicity |  |
| O=[N+]([O-])c1ccc(O)c2ncccc12 [substance A, 5-nitro-8-hydrocholine] |  |  |  | 20.7 mm |  | 830 mg/kg |
